Test results: patent US20050004163A1, “3-(diarylmethylene)-8-azabicyclo[3.2.1]octane derivatives” (priority 2000, published 2005)

Each compound was assayed against T1, μ-opioid receptor (Rattus norvegicus, UniProt P33535) (assay: Rat brain μ-opioid receptor binding assay ([3H]DAMGO)). Conditions: 10 nM solutions of the compounds, read-out: MOR binding Ki.
T1 construct: the forebrains are homogenized in Tris buffer in a Teflon®-glass homogenizer; from tissue; host or cells: forebrain of male Wistar rats (particulate membrane preparation)
T1 sequence (P33535 whole entry): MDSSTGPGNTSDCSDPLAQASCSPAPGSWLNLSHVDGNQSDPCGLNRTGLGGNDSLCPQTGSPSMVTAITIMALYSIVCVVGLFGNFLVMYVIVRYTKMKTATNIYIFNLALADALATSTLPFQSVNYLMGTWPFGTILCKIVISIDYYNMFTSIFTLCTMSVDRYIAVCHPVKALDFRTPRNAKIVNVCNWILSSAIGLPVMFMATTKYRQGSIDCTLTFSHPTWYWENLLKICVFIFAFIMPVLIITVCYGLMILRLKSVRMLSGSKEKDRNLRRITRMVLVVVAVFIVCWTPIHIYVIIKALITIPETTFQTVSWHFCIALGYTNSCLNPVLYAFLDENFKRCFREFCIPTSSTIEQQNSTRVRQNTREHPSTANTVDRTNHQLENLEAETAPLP
Description: Rat Brain μ-Opioid Receptor Binding Assay
Male, Wistar rats (150-250 g, VAF, Charles River, Kingston, N.Y.) are killed by cervical dislocation and their brains removed and placed immediately in ice cold Tris HCl buffer (50 mM, pH 7.4). The forebrains are separated from the remainder of the brain by a coronal transection, beginning dorsally at the colliculi and passing ventrally through the midbrain-pontine junction. After dissection, the forebrains are homogenized in Tris buffer in a Teflon®-glass homogenizer. The homogenate is diluted to a concentration of 1 g of forebrain tissue per 100 mL Tris buffer and centrifuged at 39,000×G for 10 min. The pellet is resuspended in the same volume of Tris buffer with several brief pulses from a Polytron homogenizer. This particulate preparation is used for the μ-opioid binding assays. […] The tubes and filters are rinsed three times with 4 mL of 10 mM HEPES (pH 7.4) and the radioactivity associated with the filter circles determined using Formula 989 scintillation fluid (New England Nuclear, Boston, Mass.) in a scintillation counter.
The data are used to calculate either the % inhibition compared to control binding (when only a single concentration of test compound is evaluated) or a Ki value (when a range of concentrations is tested).
% Inhibition is calculated as follows: [formula]
Ki value is calculated using the LIGAND (Munson, P. J. and Rodbard, D., Anal. Biochem. 107: 220-239, 1980) data analysis program.
`CCN(CC)C(=O)c1ccc(C=C2CC3CCC(C2)N3Cc2ccsc2)cc1` [Cpd 52] showed a Ki of 6490 nM. Compound `CCNC(=O)c1ccc(C(=C2CC3CCC(C2)N3Cc2ccc3ccccc3n2)c2ccccn2)cc1` [Cpd 13] has a Ki of 123 nM. For `CCNC(=O)c1ccc(C(=C2CC3CCC(C2)N3Cc2ccc(C(=O)O)o2)c2cccc(C(=O)O)c2)cc1` [Cpd 87], the Ki was 815 nM. `CCNC(=O)c1ccc(C(=C2CC3CCC(C2)N3Cc2ccco2)c2cnc3ccccc3c2)cc1` [Cpd 16] gave a Ki of 82 nM. With `CCNC(=O)c1ccc(C(=C2CC3CCC(C2)N3C=O)c2cccnc2)cc1` [Cpd 207, N-Ethyl-4-[(8-formyl-8-aza-bicyclo[3.2.1]oct-3-ylidene)-pyridin-3-yl-methyl]-benzamide] the Ki was 10000 nM. `CCNC(=O)c1ccc(C=C2CC3CCC(C2)N3Cc2sc3ccccc3c2C)cc1` [Cpd 78] gave a Ki of 271 nM. For `CCNC(=O)c1ccc(C(=C2CC3CCC(C2)N3Cc2ccco2)c2ccc(C(=O)O)cc2)cc1` [Cpd 96], the Ki was 63.5 nM. `CCNC(=O)c1ccc(C(=C2CC3CCC(C2)N3Cc2ccoc2)c2ccc3c(c2)OCO3)cc1` [Cpd 10] gave a Ki of 1.06 nM. With `CCNC(=O)c1ccc(C(=C2CC3CCC(C2)N3C(=O)OCC)c2cc(C)c(O)c(C)c2)cc1` [Cpd 173, 3-[(4-Ethylcarbamoyl-phenyl)-(4-hydroxy-3,5-dimethyl-phenyl)-methylene]-8-aza-bicyclo[3.2.1]octane-8-carboxylic acid ethyl ester] the Ki was 2070 nM.

Same assay, conditions: MOR binding Ki
Compound `CCNC(=O)c1ccc(C(=C2CC3CCC(C2)N3Cc2ccc3ccccc3n2)c2cccc(C(C)=O)c2)cc1` [Cpd 73] has a Ki of 35.9 nM. `CCNC(=O)c1ccc(C(=C2CC3CCC(C2)N3Cc2sccc2C)c2cnc3ccccc3c2)cc1` [Cpd 18] showed a Ki of 561 nM. For `CCNC(=O)c1ccc(C(=C2CC3CCC(C2)N3)c2nnn[nH]2)cc1` [Cpd 151], the Ki was 1.76 nM. `CCNC(=O)c1ccc(C(=C2CC3CCC(C2)N3CC=C(C)C)c2ccc(S(N)(=O)=O)cc2)cc1` [Cpd 142] showed a Ki of 4.01 nM. Work on `CCNC(=O)c1ccc(C(=C2CC3CCC(C2)N3Cc2csc([N+](=O)[O-])c2)c2cccc(C(C)=O)c2)cc1` [Cpd 76] yielded a Ki of 184 nM. Work on `CCNC(=O)c1ccc(C(=C2CC3CCC(C2)N3Cc2nccs2)c2cc(N)cc(C(=O)O)c2)cc1` [Cpd 118] yielded a Ki of 10000 nM. `CCNC(=O)c1ccc(C=C2CC3CCC(C2)N3Cc2cccnc2)cc1` [Cpd 57] showed a Ki of 1410 nM. `CCNC(=O)c1ccc(C(=C2CC3CCC(C2)N3Cc2ccc3ccccc3n2)c2cccnc2)cc1` [Cpd 71] was tested, and the Ki was 14.6 nM. `CCNC(=O)c1ccc(C(=C2CC3CCC(C2)N3Cc2ccc3c(c2)OCO3)c2cnc3ccccc3c2)cc1` [Cpd 65] was tested, and the Ki was 42.6 nM. Compound `CCNC(=O)c1ccc(C(=C2CC3CCC(C2)N3Cc2ccsc2)c2cc(C(=O)O)cc([N+](=O)[O-])c2)cc1` [Cpd 161] has a Ki of 10000 nM. `CCNC(=O)c1ccc(C(=C2CC3CCC(C2)N3CCc2ccccc2)c2cccc(CN)c2)cc1` [Cpd 158] was tested, and the Ki was 12 nM. In the case of `CCN(CC)C(=O)c1ccc(C=C2CC3CCC(C2)N3)cc1` [Cpd 48, 4-(8-Aza-bicyclo[3.2.1]oct-3-ylidenemethyl)-N,N-diethylbenzamide], the Ki is reported as 25800 nM. For `CCNC(=O)c1ccc(C(=C2CC3CCC(C2)N3Cc2ccsc2)c2ccc(NS(C)(=O)=O)cc2)cc1` [Cpd 190], the Ki was 0.717 nM. `CCNC(=O)c1ccc(C(Br)=C2CC3CCC(C2)N3Cc2ccoc2)cc1` [Cpd 26] was tested, and the Ki was 1.86 nM. Work on `CCN(CC)C(=O)c1ccc(C(=C2CC3CCC(C2)N3C(=N)N)c2ccccc2)cc1` [Cpd 198, 4-[(8-Carbamimidoyl-8-aza-bicyclo[3.2.1]oct-3-ylidene)-phenyl-methyl]-N,N-diethyl-benzamide] yielded a Ki of 10000 nM. Work on `CCNC(=O)c1ccc(C(=C2CC3CCC(C2)N3Cc2ccoc2)c2cc(C(=O)O)cc([N+](=O)[O-])c2)cc1` [Cpd 152] yielded a Ki of 12.2 nM. Work on `CCNC(=O)c1ccc(C(=C2CC3CCC(C2)N3Cc2nccs2)c2ccc([N+](=O)[O-])cc2)cc1` [Cpd 130] yielded a Ki of 221 nM. `CCNC(=O)c1ccc(C(=C2CC3CCC(C2)N3Cc2ccsc2)c2ccc(S(N)(=O)=O)cc2)cc1` [Cpd 139] gave a Ki of 1.54 nM. Compound `CCNC(=O)c1ccc(C(=C2CC3CCC(C2)N3CC=C(C)C)c2cccc(CN)c2)cc1` [Cpd 156] has a Ki of 5450 nM. In the case of `CCNC(=O)c1ccc(C(Br)=C2CC3CCC(C2)N3Cc2cccs2)cc1` [Cpd 40], the Ki is reported as 8.97 nM. In the case of `CCNC(=O)c1ccc(C(Br)=C2CC3CCC(C2)N3Cc2ncc[nH]2)cc1` [Cpd 22], the Ki is reported as 58.5 nM. For `CCNC(=O)c1ccc(C(=C2C[C@H]3CC[C@@H](C2)N3C(=O)Cc2ccccc2)c2cccnc2)cc1` [Cpd 218, N-Ethyl-4-[((1S,5R)-8-phenylacetyl-8-aza-bicyclo[3.2.1]oct-3-ylidene)-pyridin-3-yl-methyl]-benzamide], the Ki was 3.54 nM. `CCNC(=O)c1ccc(C(=C2CC3CCC(C2)N3Cc2ccccn2)c2cc(C(=O)O)cc([N+](=O)[O-])c2)cc1` [Cpd 154] showed a Ki of 91.3 nM. `CCNC(=O)c1ccc(C(=C2CC3CCC(C2)N3Cc2nccs2)c2cccc(-c3nnn[nH]3)c2)cc1` [Cpd 167] showed a Ki of 5.35 nM. Work on `CCNC(=O)c1ccc(C(Br)=C2CC3CCC(C2)N3Cc2ccoc2)cc1` (single isomer, unassigned) [Cpd 211] yielded a Ki of 0.23 nM. For `CCNC(=O)c1ccc(C=C2CC3CCC(C2)N3Cc2ccc3c(c2)OCO3)cc1` [Cpd 54], the Ki was 130 nM. With `CCN(CC)C(=O)c1ccc(C(=C2CC3CCC(C2)N3C=O)c2ccccc2)cc1` [Cpd 199] the Ki was 5340 nM. `CCNC(=O)c1ccc(C(=C2CC3CCC(C2)N3Cc2ccco2)c2nnn[nH]2)cc1` [Cpd 146] gave a Ki of 15.2 nM. With `CCNC(=O)c1ccc(C=C2CC3CCC(C2)N3Cc2ccsc2)cc1` [Cpd 33] the Ki was 198 nM. Compound `CCNC(=O)c1ccc(C(=C2CC3CCC(C2)N3Cc2nccs2)c2ccc(CC(N)C(=O)O)cc2)cc1` (stereo not drawn) [Cpd 131] has a Ki of 152 nM. With `CCNC(=O)c1ccc(C(=C2CC3CCC(C2)N3Cc2ccc(NC(C)=O)cc2)c2cnc3ccccc3c2)cc1` [Cpd 14] the Ki was 959 nM. `CCNC(=O)c1ccc(/C(=C2\C[C@H]3CC[C@@H](C2)N3Cc2ccccn2)c2ccc(C(=O)N(C)C)cc2)cc1` [Cpd 113, N-Ethyl-4-[N′,N′-dimethylbenzamide-(8-pyridin-2-ylmethyl-8-aza-bicyclo[3.2.1]oct-3-ylidene)-methyl]-benzamide] showed a Ki of 36.6 nM. Compound `CCNC(=O)c1ccc(C(=C2CC3CCC(C2)N3C(=O)c2ccccn2)c2cccnc2)cc1` [Cpd 213] has a Ki of 10000 nM. With `CCNC(=O)c1ccc(C(=C2CC3CCC(C2)N3Cc2nccs2)c2ccc(NS(C)(=O)=O)cc2)cc1` [Cpd 187] the Ki was 121 nM. In the case of `CCNC(=O)c1ccc(C(=C2CC3CCC(C2)N3Cc2ccc3ccccc3n2)c2cccc(NC(C)=O)c2)cc1` [Cpd 72], the Ki is reported as 11.1 nM. Compound `CCNC(=O)c1ccc(C(=C2CC3CCC(C2)N3Cc2ccoc2)c2ccc(S(N)(=O)=O)cc2)cc1` [Cpd 138] has a Ki of 49.5 nM. With `CCNC(=O)c1ccc(C=C2CC3CCC(C2)N3CC#Cc2ccccc2)cc1` [Cpd 59] the Ki was 31.6 nM. With `CCNC(=O)c1ccc(C(=C2CC3CCC(C2)N3Cc2ccoc2)c2nnn[nH]2)cc1` [Cpd 144] the Ki was 212 nM. `CCNC(=O)c1ccc(C(=C2CC3CCC(C2)N3Cc2ccco2)c2ccc(CO)cc2)cc1` [Cpd 192] was tested, and the Ki was 18.6 nM. With `CCNC(=O)c1ccc(C(=C2CC3CCC(C2)N3Cc2ccccn2)c2ccc(NS(C)(=O)=O)cc2)cc1` [Cpd 182] the Ki was 2.71 nM. Compound `CCNC(=O)c1ccc(C(=C2CC3CCC(C2)N3Cc2ccoc2)c2cc(N)cc(C(=O)O)c2)cc1` [Cpd 110] has a Ki of 9140 nM. `CCNC(=O)c1ccc(C=C2CC3CCC(C2)N3Cc2ccc(NC(C)=O)cc2)cc1` [Cpd 31] gave a Ki of 25.6 nM. `CCNC(=O)c1ccc(C(=C2CC3CCC(C2)N3CCc2ccccc2)c2cccc(C(=O)O)c2)cc1` [Cpd 83] gave a Ki of 17.2 nM. For `CCNC(=O)c1ccc(C(=C2CC3CCC(C2)N3Cc2nccs2)c2ccc(S(N)(=O)=O)cc2)cc1` [Cpd 140], the Ki was 217 nM. Compound `CCNC(=O)c1ccc(C(=C2CC3CCC(C2)N3Cc2ccccn2)c2cccc(-c3nnn[nH]3)c2)cc1` [Cpd 165] has a Ki of 54.1 nM. `CCNC(=O)c1ccc(C=C2CC3CCC(C2)N3Cc2c[nH]cn2)cc1` [Cpd 46] was tested, and the Ki was 5480 nM. In the case of `CCNC(=O)c1ccc(C(=C2CC3CCC(C2)N3Cc2ccc3ccccc3n2)c2cncnc2)cc1` [Cpd 101], the Ki is reported as 113 nM. `CCNC(=O)c1ccc(C(=C2CC3CCC(C2)N3CC=C(C)C)c2cc(N)cc(C(=O)O)c2)cc1` [Cpd 114] showed a Ki of 4830 nM. Work on `CCNC(=O)c1ccc(C(=C2CC3CCC(C2)N3Cc2ccsc2)c2cccc(CO)c2)cc1` [Cpd 189] yielded a Ki of 13.7 nM. `CCNC(=O)c1ccc(C(=C2CC3CCC(C2)N3Cc2ccccn2)c2cccc(CO)c2)cc1` [Cpd 181] showed a Ki of 6.04 nM. For `CCNC(=O)c1ccc(C=C2C[C@H]3CC[C@@H](C2)N3CCc2ccccc2)cc1` (single isomer, unassigned) [Cpd 41, (+)—N-Ethyl-4-(8-phenethyl-8-aza-bicyclo[3.2.1]oct-3-ylidenemethyl)-benzamide], the Ki was 124 nM. `CCNC(=O)c1ccc(C(=C2CC3CCC(C2)N3Cc2nccs2)c2cccc(CO)c2)cc1` [Cpd 186] showed a Ki of 28.6 nM. With `CCNC(=O)c1ccc(C(=C2CC3CCC(C2)N3Cc2ccccn2)c2cc(N)cc(C(=O)O)c2)cc1` [Cpd 112] the Ki was 10000 nM. In the case of `CCNC(=O)c1ccc(C=C2C[C@H]3CC[C@@H](C2)N3CCc2ccccc2)cc1` (single isomer, unassigned) [Cpd 42, (−)—N-Ethyl-4-(8-phenethyl-8-aza-bicyclo[3.2.1]oct-3-ylidenemethyl)-benzamide], the Ki is reported as 5.99 nM.
